The values below come from patent US7175872B2, “Pyridinium-Betain compounds for use as taste modulators” (Nestec S.A., priority 2002, dated 2007).

Where a name gives a salt, the structure may show the parent alone.

Holding throughout (assay type): in vivo
The subject of one assay is umami taste of MSG. The assay is described as follows: Umami taste detection threshold of MSG/Pyridinium-Betaine mixtures (triangle test, sensory panel). As for the experimental part:
(§1) • Sensory panel training: […] Sensory analyses were performed in a sensory panel room at 22-25° C. on three different sessions. • Taste thresholds: The taste thresholds of the tastants or mixtures containing basic tastants plus Pyridinium-Betains were determined in a triangle test using Evian® mineral water as the solvent at a defined pH ([…] and H.-D. Belitz, Z. Lebensm. Unters. Forsch. 1975, 159, 65-72). The samples (3 mL) were presented in order of increasing concentrations (serial 1:1 dilutions). The threshold values evaluated in two different sessions were averaged. […] The taste intensities of aqueous (Evian®) solutions containing a basic tastant, such as glucose and MSG, for example, in constant concentrations and the compounds of the general formula (A), for example […], in various concentrations were compared with those of a solution containing the basic tastant only. To achieve this, triangle tests were performed with two glass vials containing the basic tastant in constant concentrations, and one glass vial containing a stepwise 1:1-diluted mixture of basic […]. […] The relative taste strength (taste enhancing factor) of a mixture containing the basic […] was related to the basic tastants glucose, MSG, or other tastants, respectively, as standard substances, and was determined as the ratio of the concentrations c of iso-intensely tasting solutions of the basic tastant, such as glucose (glc), and the mixture containing tastant plus Pyridinium-Betain, […])=[…] […] This taste enhancing effect is illustrated in examples. Pyridinium-Betaines not only enhance the sweet taste perception, but also the umami taste.

Another assay concerns sweet taste of sucrose. The assay is described as follows: Sweet taste detection threshold of sucrose/Pyridinium-Betaine mixtures (triangle test, sensory panel). Further details: key to Threshold decrease: fold decrease of sweet threshold vs pure sucrose. On the procedure: (§2) • Sensory panel training: […] Sensory analyses were performed in a sensory panel room at 22-25° C. on three different sessions. • Taste thresholds: The taste thresholds of the tastants or mixtures containing basic tastants plus Pyridinium-Betains were determined in a triangle test using Evian® mineral water as the solvent at a defined pH ([…] and H.-D. Belitz, Z. Lebensm. Unters. Forsch. 1975, 159, 65-72). The samples (3 mL) were presented in order of increasing concentrations (serial 1:1 dilutions). The threshold values evaluated in two different sessions were averaged. […] The taste intensities of aqueous (Evian®) solutions containing a basic tastant, such as glucose and MSG, for example, in constant concentrations and the compounds of the general formula (A), for example […], in various concentrations were compared with those of a solution containing the basic tastant only. To achieve this, triangle tests were performed with two glass vials containing the basic tastant in constant concentrations, and one glass vial containing a stepwise 1:1-diluted mixture of basic […]. […] The relative taste strength (taste enhancing factor) of a mixture containing the basic […] was related to the basic tastants glucose, MSG, or other tastants, respectively, as standard substances, and was determined as the ratio of the concentrations c of iso-intensely tasting solutions of the basic tastant, such as glucose (glc), and the mixture containing tastant plus Pyridinium-Betain, […])=[…] This taste enhancing effect is illustrated in examples. The sweet taste thresholds of equimolar mixtures of sweet tasting compounds and various Pyridinium-Betaines were determined by a triangle test using EVIAN® mineral water as the solvent. The sensorial evaluations were performed at different pH values. The equimolar mixture of […] and sucrose at pH 7.0 was evaluated with a 4-fold lower sweet threshold concentration than pure sucrose (Table 1).

A further assay has as its system sweet taste of glucose. Nature of the assay: Sweet taste detection threshold of glucose/Pyridinium-Betaine mixtures (triangle test, sensory panel). The settings on record: equimolar mixture with glucose, pH 7.0; for Threshold decrease: vs glucose in water 50.0 mmol/L. On the procedure:
as §2, with “1). […] is able to reduce the sweet threshold of glucose 16-fold at pH 7.0 and pH 9.0, whereas at pH 5.0 a gain the sweet taste perception […] (Table 2). […] Using the dipeptide derivative (S)-[…] as a taste-enhancer leads to a 16-fold threshold reduction compared to glucose.” for “1).”

In the next assay the test system is salty taste of NaCl. The assay is described as follows: Salt taste detection threshold of NaCl/Pyridinium-Betaine mixtures (triangle test, sensory panel). On the procedure:
• Sensory panel training: […] Sensory analyses were performed in a sensory panel room at 22-25° C. on three different sessions. • Taste thresholds: The taste thresholds of the tastants or mixtures containing basic tastants plus Pyridinium-Betains were determined in a triangle test using Evian® mineral water as the solvent at a defined pH ([…] and H.-D. Belitz, Z. Lebensm. Unters. Forsch. 1975, 159, 65-72). The samples (3 mL) were presented in order of increasing concentrations (serial 1:1 dilutions). The threshold values evaluated in two different sessions were averaged. […] The taste intensities of aqueous (Evian®) solutions containing a basic tastant, such as glucose and MSG, for example, in constant concentrations and the compounds of the general formula (A), for example […], in various concentrations were compared with those of a solution containing the basic tastant only. […] The relative taste strength (taste enhancing factor) of a mixture containing the basic […] was related to the basic tastants glucose, MSG, or other tastants, respectively, as standard substances, and was determined as the ratio of the concentrations c of iso-intensely tasting solutions of the basic tastant, such as glucose (glc), and the mixture containing tastant plus Pyridinium-Betain, […])=[…] […] This taste enhancing effect is illustrated in examples.

Another assay relates to sweet taste of L-alanine. The assay is described as follows: Sweet taste detection threshold of L-alanine/Pyridinium-Betaine mixtures (triangle test, sensory panel). The settings on record: L-alanine alone. On the procedure:
as §1, with “Besides the two carbohydrates,” for “Pyridinium-Betaines not only enhance”, “sweet amino acid L-alanine was also tested with […]. Again, the best impact on sweet” for “sweet”, “perception was found for” for “perception, but also”, “mixture at pH 9.0, resulting in an 8-fold lower threshold.” for “umami taste.”

The mark [1] stands for this setting: umami, MSG and mixtures with Alapyridaine enantiomers (Table 9), pH not stated.
Setting [2] is: sweet, vs sucrose alone (Table 10).
[3] abbreviates: equimolar mixture with MSG, pH 7.0.
Setting [4] is: equimolar mixture with MSG, pH 7.0, vs MSG in water 1.5 mmol/L.
Where [5] appears, read: equimolar mixture with sucrose, pH 7.0.
Setting [6] is: equimolar mixture with sucrose, pH 9.0.
The mark [7] stands for this setting: equimolar mixture with sucrose, pH 9.0, vs sucrose in water 12.5 mmol/L.

Turning to `C[C@@H](C(=O)[O-])[n+]1cc(O)ccc1CO` [(+)-(S)-Alapyridaine, (S)-N-(1-carboxyethyl)-3-hydroxy-6-hydroxymethyl-pyridinium inner salt], the Detection threshold with umami taste of MSG (setting [1]) turned out to be 0.2 mmol/kg water. The Threshold decrease with sweet taste of sucrose (setting [2]) stood at 8.
For the compound `O=C(C[n+]1cc(O)ccc1CO)N[C@@H](Cc1ccccc1)C(=O)[O-]` [(S)-GlyPhepyridaine, (S)-N-[N(1-carboxy-2-phenyl-ethyl)-carboxamido-methyl]-3-hydroxy-6-hydroxymethyl-pyridinium inner salt], in the assay on umami taste of MSG (setting [3]), the Taste quality entry is recorded as “umami” and the Umami detection threshold came to 0.2 mmol/kg water. For the same compound, the Threshold decrease in the assay with umami taste of MSG (setting [4]) stood at 8.0. In addition, in the assay on sweet taste of glucose, the Sweet detection threshold stood at 3.0 mmol/kg water, the Taste quality result is recorded as “sweet” and the Threshold decrease is recorded as 16.
`C[C@H](C(=O)[O-])[n+]1cc(O)ccc1CO` [(−)-(R)-Alapyridaine, (R)-N-(1-carboxyethyl)-3-hydroxy-6-hydroxymethyl-pyridinium inner salt]: the Threshold decrease entry with umami taste of MSG (umami, vs MSG alone (Table 9)) is “does not have any taste enhancing impact”; in the assay with sweet taste of sucrose (setting [2]), “does not alter the sweet taste perception of sucrose”; in the assay with salty taste of NaCl (salty, vs NaCl alone (Table 11)), “did not alter the taste of the aqueous salt solution”.
Take `O=C(O)CCC(C(=O)[O-])[n+]1cc(O)ccc1CO` (stereo not shown) [Glupyridaine, N-(1,3-dicarboxypropyl)-3-hydroxy-6-hydroxymethyl-pyridinium inner salt]: the Taste quality entry in the assay on umami taste of MSG (setting [3]) is on record as “umami”; in the assay on sweet taste of sucrose (setting [5]), “sweet”; with sweet taste of sucrose (setting [6]), “sweet”. Also, the Umami detection threshold in the assay on umami taste of MSG (setting [3]) is 0.4 mmol/kg water. For the same compound, the Threshold decrease in the assay on umami taste of MSG (setting [4]) amounted to 4.0; with sweet taste of sucrose (setting [7]), 2. In addition, the Sweet detection threshold in the assay on sweet taste of sucrose (setting [5]) is 12.0 mmol/kg water; in the assay on sweet taste of sucrose (setting [6]), 6.0 mmol/kg water.
As to `C[C@H](N)C(=O)O` [L-alanine, reference compound], the “threshold of L-alanine in water” value in the assay with sweet taste of L-alanine was “^aThe threshold of L-alanine in water is 12.5 mmol/L”.
For the compound `N[C@@H](CCC(=O)O)C(=O)[O-].[Na+]` [MSG, monosodium glutamate, reference compound], the “threshold of MSG in water” value with umami taste of MSG (MSG alone) was “^aThe threshold of MSG in water is 1.5 mmol/L”. In the assay with umami taste of MSG (MSG and mixtures with Alapyridaine enantiomers (Table 9), pH not stated), the Taste quality result is reported as “umami”. Further, the Detection threshold in the assay with umami taste of MSG (setting [1]) is 1.5 mmol/kg water.
Turning to `O=C([O-])[C@H](Cc1ccccc1)[n+]1cc(O)ccc1CO` [Phepyridaine], the Taste quality entry in the assay on umami taste of MSG (setting [3]) is recorded as “umami”; in the assay on sweet taste of glucose it was “sweet”; in the assay with sweet taste of sucrose (setting [5]) it was “sweet”; in the assay on sweet taste of sucrose (setting [6]) it was “sweet”; with salty taste of NaCl (mixture with NaCl, pH 7.0), “salty”. Further, the Umami detection threshold with umami taste of MSG (setting [3]) amounted to 0.4 mmol/kg water. Also, the Threshold decrease in the assay on umami taste of MSG (setting [4]) was found to be 4.0; with sweet taste of glucose, 16.0; with sweet taste of sucrose (equimolar mixture with sucrose, pH 7.0, vs sucrose in water 12.5 mmol/L), 4.0; in the assay with sweet taste of sucrose (setting [7]), 8.0; in the assay with salty taste of NaCl (mixture with NaCl, pH 7.0, vs NaCl in water 10.0 mmol/L), 5.0. Besides, the Sweet detection threshold was 3.0 mmol/kg water in the assay with sweet taste of glucose, 3.0 mmol/kg water with sweet taste of sucrose (setting [5]) and 1.5 mmol/kg water in the assay with sweet taste of sucrose (setting [6]). In addition, the “concentration above which a rubber-like off-taste is imparted” value in the assay on sweet taste of sucrose (mixture with sucrose) is on record as “above 3 mmol/kg”. The “concentration above which the sweetness is associated with a rubber-like taste” value in the assay on sweet taste of sucrose (mixture with sucrose) was “^bThe sweetness is associated with a rubber-like taste in concentrations higher than 3 mmol/L”. Moreover, the Salt detection threshold in the assay on salty taste of NaCl (mixture with NaCl, pH 7.0) amounted to 2.0 mmol/kg water.
Consider `OC[C@H]1O[C@@](CO)(O[C@H]2O[C@H](CO)[C@@H](O)[C@H](O)[C@H]2O)[C@@H](O)[C@@H]1O` [Sucrose, sucrose, reference compound], for which the “threshold of sucrose in water” value with sweet taste of sucrose (sucrose alone) is reported as “^aThe threshold of sucrose in water is 12.5 mmol/L”. For the same compound, the Taste quality result with sweet taste of sucrose (sucrose and mixtures with Alapyridaine enantiomers (Table 10), pH not stated) is reported as “sweet”. Besides, the Detection threshold in the assay with sweet taste of sucrose (sweet, sucrose and mixtures with Alapyridaine enantiomers (Table 10), pH not stated) came to 12.5 mmol/kg water.
